{"source": "patent US20090215760A1", "about": "“SYNERGISTIC INSECTICIDE MIXTURES” (priority 2004, published 2009)", "type_in_all_cases": "in vivo", "key": {"Myzus persicae": {"system": "Myzus persicae", "test": "Myzus persicae test, cabbage leaf dip", "details": "single active compound", "from_the_text": "(§1) The action expected for a given combination of two active components can be calculated as follows (cf. Colby, S. R., “Calculating Synergistic and Antagonistic Responses of Herbicide Combinations”, Weeds 15, pages 20-22, 1967):\n(§2) if • X stands for the death rate expressed as % of the untreated controls on application of active component A at an applied amount of m ppm • Y for the death rate expressed as % of the untreated controls on application of active component B at an applied amount of n ppm • E for the death rate expressed as % of the untreated controls on application of active components A and B at applied amount of m and n ppm • then\n(§3) If the actual insecticidal death rate is greater than calculated, the combination is superadditive in its death rate, i.e. there is a synergistic effect. In this case the death rate actually observed must be greater than the value for the expected death rate (E) calculated from the above equation.\n(§4) To prepare a suitable formulation of the active material 1 part by weight of the active material is mixed with the given amounts of solvent and emulsifier and the concentrate is diluted to the desired concentration with water containing the emulsifier.\nCabbage leaves (Brassica oleracea) which are highly infected by the green peach aphid (Myzus persicae) are treated by dipping into the active mixture formulation of the desired concentration.\nAfter the desired time the death rate is calculated as %, where 100% means that all aphids were killed, 0% that no aphids were killed. The death rates were calculated by the Colby equation."}, "Spodoptera frugiperda": {"system": "Spodoptera frugiperda", "test": "Spodoptera frugiperda test, cabbage leaf dip", "details": "4 ppm, single active compound", "from_the_text": "as §1, §2, §3\nSpodoptera frugiperda Test […]\n(§5) After the desired time the death rate is calculated as %, where 100% means that all caterpillars were killed, 0% that no caterpillars were killed. The death rates are calculated by the Colby equation."}, "[1]": {"system": "Plutella xylostella, normal sensitive strain", "test": "Plutella xylostella test (normal sensitive strain), cabbage leaf dip", "details": "single active compound", "from_the_text": "as §1, §2, §3\nPlutella xylostella Test (Normal Sensitive Strain)\nas §4\nCabbage leaves (Brassica oleracea) are treated by dipping into the active mixture formulation at the desired concentration and infected with the caterpillar of the diamondback (cabbage) moth (Plutella xylostella, normal sensitive strain) while the leaves are still moist.\nas §5"}, "[2]": {"details": "4 ppm, 6 d (Table B, clothianidin series)"}}, "data": [{"smiles": "CC[S+]([O-])c1c(C#N)nn(-c2c(Cl)cc(C(F)(F)F)cc2Cl)c1N", "note": "(stereo not drawn) [Ethiprole, ethiprole]", "values": [{"measurement": "Death rate in % after 6 d", "setting": "Myzus persicae; 0.8 ppm, 6 d (Table B, imidacloprid series)", "value": 0, "unit": "%"}, {"measurement": "Death rate in % after 6 d", "setting": "Myzus persicae; [2]", "value": 0, "unit": "%"}, {"measurement": "Death rate in % after 6 d", "setting": "Myzus persicae; 4 ppm, 6 d (Table B, thiacloprid series)", "value": 10, "unit": "%"}, {"measurement": "Death rate in % after 6 d", "setting": "Spodoptera frugiperda", "value": 0, "unit": "%"}, {"measurement": "Death rate in % after 6 d", "setting": "[1]; 4 ppm", "value": 0, "unit": "%"}, {"measurement": "Death rate in % after 4 d", "setting": "[1]; 20 ppm", "value": 35, "unit": "%"}]}, {"smiles": "N#C/N=C1\\SCCN1Cc1ccc(Cl)nc1", "note": "[Thiacloprid]", "values": [{"measurement": "Death rate in % after 6 d", "setting": "Myzus persicae; 0.8 ppm, 6 d (Table B, thiacloprid series)", "value": 15, "unit": "%"}, {"measurement": "Death rate in % after 4 d", "setting": "[1]; 4 ppm", "value": 0, "unit": "%"}]}, {"smiles": "O=[N+]([O-])/N=C1\\NCCN1Cc1ccc(Cl)nc1", "note": "[Imidacloprid]", "values": [{"measurement": "Death rate in % after 6 d", "setting": "Myzus persicae; 0.16 ppm, 6 d (Table B, imidacloprid series)", "value": 0, "unit": "%"}, {"measurement": "Death rate in % after 6 d", "setting": "Spodoptera frugiperda", "value": 15, "unit": "%"}]}, {"smiles": "CN/C(=N\\[N+](=O)[O-])NCc1cnc(Cl)s1", "note": "[Clothianidin]", "values": [{"measurement": "Death rate in % after 6 d", "setting": "Myzus persicae; [2]", "value": 0, "unit": "%"}, {"measurement": "Death rate in % after 6 d", "setting": "[1]; 4 ppm", "value": 10, "unit": "%"}]}]}
